In patent publication US20080020368A1, “Method and apparatus for exposing cells to different concentrations of analytes or drugs” (priority 2006, published 2008):

Test system: HL60 cells
Assay: On-chip TMR study: laser-enhanced TMR fluorescence response of docked cells in tapered microchannel device
Format: cell-based
Settings: Homo sapiens, HL-60, light or radiation study; HL60 cells docked on upper sandbag, on-chip serial dilution of TMR, fast Helium-Neon laser irradiation (~70 ms/ROI) for 3 more minutes; 50% intensity; read-out: EC50 of TMR concentration required to trigger the enhanced fluorescence response
Source text: It was the highly compact design of this microdevice that facilitated the comparative study between large amounts of cells on two sandbag components. […] However, only a region of interest (ROI) on the upper sandbag was subjected to fast laser irradiation (˜70 ms/ROI of Helium-Neon laser) for 3 more minutes. A confocal image of both sandbags after the fast irradiation was developed.
Furthermore, despite the large ROI coverage over the upper sandbag, the enhanced response was evidenced for the cells incubated at higher TMR concentration near the sandbag rear. Therefore, the conclusion is that the enhanced response was at least related to 1) concentration of TMR and 2) the amount of laser irradiation.
Referring to FIG. 30, photomicrographs are shown one on top of the other, with the top photomicrograph showing cells docked on both sandbags but only those encircled by the black dotted framework are subjected to laser irradiation. […] The purpose of these photomicrographs is to show the power of the microchip to perform rapid analysis and retrieve effective concentration of a photodynamic therapy drug candidate that is sensitive to light irradiation.
The response profiles of cells docked on the upper and lower sandbags of FIG. 30 are plotted in FIG. 31. […] Note further that there is an average peak in intensity at a 3.73 μM at 50% intensity. […]

In the case of `CN(C)c1ccc2c(-c3ccc(CCl)cc3)c3ccc(=[N+](C)C)cc-3oc2c1` [TMR, Tetramethylrosamine], the EC50 is reported as 3.73 µM.
